Test results from patent US20260325533A1, “CDK INHIBITOR COMPOUNDS” (ALEKSIA THERAPEUTICS, INC., priority 2023, published 2026).
pIC50: −log10 of the molar value. Where two headings read alike, the source gives them in different places.

Columns and labels:
Assay type in all cases: biochemical
CDK2/CCNE1 = CDK2/CCNE1 (Homo sapiens, UniProt P24941); assay: CDK2 homogeneous time-resolved fluorescence (HTRF) kinase assay; conditions: CDK2/CCNE
Method in brief: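 3 nM CDK2/CCNE1 was preincubated with compound for 20 min at 23 °C in HEPES buffer (pH not stated), then reacted 60 min with 1 mM ATP and 50 nM ULight-4E-BP1 (Thr37/46) peptide. After EDTA stop, Eu-anti-phospho-4E-BP1 antibody (2 nM) was added for 60 min and TR-FRET read at 665 nm.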

CDK1/CCNB1 = CDK1/CCNB1 (Homo sapiens, UniProt P06493); assay: CDK1 homogeneous time-resolved fluorescence (HTRF) kinase assay; conditions: CDK1/CCNB
Sequence of CDK1/CCNB1 (P06493 whole entry): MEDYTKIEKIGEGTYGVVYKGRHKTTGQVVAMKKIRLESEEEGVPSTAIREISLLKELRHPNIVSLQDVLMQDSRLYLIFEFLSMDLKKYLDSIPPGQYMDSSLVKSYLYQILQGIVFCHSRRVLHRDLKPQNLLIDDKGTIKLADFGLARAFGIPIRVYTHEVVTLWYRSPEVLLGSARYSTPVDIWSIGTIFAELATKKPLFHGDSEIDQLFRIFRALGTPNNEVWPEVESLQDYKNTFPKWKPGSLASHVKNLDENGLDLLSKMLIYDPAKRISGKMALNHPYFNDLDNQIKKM
Sequence of CDK1/CCNB1 (P14635 whole entry partner): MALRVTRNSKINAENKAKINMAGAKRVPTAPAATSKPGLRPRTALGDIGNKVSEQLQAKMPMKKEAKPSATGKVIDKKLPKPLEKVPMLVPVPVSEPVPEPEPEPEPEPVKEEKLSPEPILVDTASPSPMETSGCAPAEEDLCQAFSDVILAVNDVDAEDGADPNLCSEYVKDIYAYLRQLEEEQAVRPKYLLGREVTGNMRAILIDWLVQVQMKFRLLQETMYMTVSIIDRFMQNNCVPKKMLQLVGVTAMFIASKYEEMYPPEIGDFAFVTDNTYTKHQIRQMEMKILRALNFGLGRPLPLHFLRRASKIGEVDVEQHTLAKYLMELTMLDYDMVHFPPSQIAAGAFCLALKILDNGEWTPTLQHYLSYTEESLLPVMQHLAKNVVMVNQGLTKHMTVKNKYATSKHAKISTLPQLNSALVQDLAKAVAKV
Method in brief: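 CDK1/CCNB1 0.5 nM + cpd, 20 min 23 °C; add 1 mM ATP, 50 nM ULight-4E-BP1 peptide, 60 min 23 °C; stop 10 mM EDTA; 2 nM Eu-Ab, 60 min; HTRF 665 nm. 11-pt half-log, top 10 μM typical; IC50.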

CDK4/CCND3 = CDK4/CCND3 (Homo sapiens, UniProt P11802); assay: CDK4 homogeneous time-resolved fluorescence (HTRF) kinase assay; conditions: CDK4/CCND
Sequence of CDK4/CCND3 (P11802 whole entry): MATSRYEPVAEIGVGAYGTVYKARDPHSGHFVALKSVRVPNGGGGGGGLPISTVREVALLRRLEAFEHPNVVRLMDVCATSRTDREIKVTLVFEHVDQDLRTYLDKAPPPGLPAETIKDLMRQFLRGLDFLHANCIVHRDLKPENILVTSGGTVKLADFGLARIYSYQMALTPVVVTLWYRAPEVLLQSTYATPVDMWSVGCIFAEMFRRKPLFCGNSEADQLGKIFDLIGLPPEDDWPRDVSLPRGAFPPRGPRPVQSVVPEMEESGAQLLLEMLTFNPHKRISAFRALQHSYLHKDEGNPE
Sequence of CDK4/CCND3 (P30281 whole entry partner): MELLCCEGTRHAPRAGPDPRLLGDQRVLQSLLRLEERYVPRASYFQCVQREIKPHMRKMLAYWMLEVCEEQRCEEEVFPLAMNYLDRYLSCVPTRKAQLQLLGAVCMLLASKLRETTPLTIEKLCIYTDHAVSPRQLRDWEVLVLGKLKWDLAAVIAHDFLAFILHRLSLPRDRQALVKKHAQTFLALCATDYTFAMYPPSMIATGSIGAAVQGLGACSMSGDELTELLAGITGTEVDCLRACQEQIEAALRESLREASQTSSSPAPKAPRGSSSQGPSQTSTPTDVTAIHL
Method in brief: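 Inhibition of CDK4/CCND3 (1.5 nM) was measured at high ATP (1 mM) using 50 nM ULight-labelled 4E-BP1 Thr37/46 peptide; detection used 2 nM europium anti-phospho antibody after EDTA quench. IC50 values came from 11-point half-log titrations typically starting at 10 μM.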

CDK6/CCND1 = CDK6/CCND1 (Homo sapiens, UniProt Q00534); assay: CDK6 homogeneous time-resolved fluorescence (HTRF) kinase assay; conditions: CDK6/CCND
Sequence of CDK6/CCND1 (Q00534 whole entry): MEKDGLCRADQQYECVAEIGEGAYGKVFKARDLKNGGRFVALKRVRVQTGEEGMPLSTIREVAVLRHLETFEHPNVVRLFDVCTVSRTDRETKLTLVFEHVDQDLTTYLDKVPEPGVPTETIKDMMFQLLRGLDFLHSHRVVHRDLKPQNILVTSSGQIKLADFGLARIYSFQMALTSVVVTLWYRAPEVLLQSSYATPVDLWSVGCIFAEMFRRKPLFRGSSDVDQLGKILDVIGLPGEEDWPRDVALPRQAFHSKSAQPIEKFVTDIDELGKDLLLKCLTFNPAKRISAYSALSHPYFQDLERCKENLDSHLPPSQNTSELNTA
Sequence of CDK6/CCND1 (P24385 whole entry partner): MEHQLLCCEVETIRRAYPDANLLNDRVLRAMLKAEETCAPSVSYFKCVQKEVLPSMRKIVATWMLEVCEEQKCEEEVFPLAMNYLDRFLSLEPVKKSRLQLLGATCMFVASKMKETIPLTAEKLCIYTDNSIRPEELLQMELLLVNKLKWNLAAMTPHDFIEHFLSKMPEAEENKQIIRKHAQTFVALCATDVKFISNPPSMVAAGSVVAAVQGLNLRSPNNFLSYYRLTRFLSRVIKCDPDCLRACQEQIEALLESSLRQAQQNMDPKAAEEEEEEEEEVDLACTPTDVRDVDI
Method in brief: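 1 nM enzyme, 1 mM ATP, 50 nM ULight-4E-BP1 (Thr37/46) peptide, 1% DMSO; 20 min compound preincubation, 60 min reaction, 23 °C. EDTA stop, 2 nM Eu-anti-phospho-4E-BP1 antibody 60 min. TR-FRET 665 nm (or 665/615 ratio); IC50 from 11-point half-log titration, top 10 μM.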

[1] = <25 nM, read-out: CDK2/CCNE IC50 <25 nM
[2] = >250 nM marked x, read-out: CDK1/CCNB IC50 >250 nM
[3] = >250 nM marked x, read-out: CDK4/CCND IC50 >250 nM
[4] = >250 nM marked x, read-out: CDK6/CCND IC50 >250 nM
[5] = 25-250 nM marked x, read-out: CDK1/CCNB IC50 25-250 nM
[6] = x = IC50 <25 nM, read-out: CDK2/CCNE IC50 (<25 nM)
[7] = x = IC50 25-250 nM, read-out: CDK1/CCNB IC50 (25-250 nM)
[8] = x = IC50 25-250 nM, read-out: CDK4/CCND IC50 (25-250 nM)
[9] = x = IC50 >250 nM, read-out: CDK6/CCND IC50 (>250 nM column)
[10] = x = IC50 >250 nM, read-out: CDK1/CCNB IC50 (>250 nM column)
[11] = x = IC50 >250 nM, read-out: CDK4/CCND IC50 (>250 nM column)
[12] = x = IC50 25-250 nM, read-out: CDK6/CCND IC50 (25-250 nM)

SMILES | pIC50 (CDK2/CCNE1; [6]) | pIC50 (CDK1/CCNB1; [7]) | pIC50 (CDK4/CCND3; [8]) | pIC50 (CDK6/CCND1; [9]) | also measured
COc1cc(S(=N)(=O)C(C)C)ccc1Nc1cc2c(C#Cc3ccc4c(c3)NC(=O)C43CC3)nccc2cn1 (single isomer, unassigned) [Ex 334, 6'-((7-((2-methoxy-4-(propan-2-ylsulfonimidoyl)phenyl)amino)-2,6-naphthyridin-1-yl)ethynyl)spiro[cyclopropane-1,3'-indolin]-2'-one] | – | – | – | – | pIC50 (CDK2/CCNE1; [1]): > 7.60; pIC50 (CDK1/CCNB1; [2]): < 6.60; pIC50 (CDK4/CCND3; [3]): < 6.60; pIC50 (CDK6/CCND1; [4]): < 6.60
CCC1(CC)C(=O)Nc2cc(C#Cc3nccc4cnc(Nc5ccc(S(C)(=N)=O)cc5C)cc34)ccc21 (single isomer, unassigned) [Ex 336, 3,3-diethyl-6-((7-((2-methyl-4-(S-methylsulfonimidoyl)phenyl)amino)-2,6-naphthyridin-1-yl)ethynyl)indolin-2-one] | – | – | – | – | pIC50 (CDK2/CCNE1; [1]): > 7.60; pIC50 (CDK1/CCNB1; [5]): 6.60 to 7.60; pIC50 (CDK4/CCND3; [3]): < 6.60; pIC50 (CDK6/CCND1; [4]): < 6.60
CCC1(CC)C(=O)Nc2cc(C#Cc3nccc4cnc(Nc5ccc(S(=N)(=O)C6CC6)cc5)cc34)ccc21 (single isomer, unassigned) [Ex 339, 6-((7-((4-(cyclopropanesulfonimidoyl)phenyl)amino)-2,6-naphthyridin-1-yl)ethynyl)-3,3-diethylindolin-2-one] | – | – | – | – | pIC50 (CDK2/CCNE1; [1]): > 7.60; pIC50 (CDK1/CCNB1; [5]): 6.60 to 7.60; pIC50 (CDK4/CCND3; [3]): < 6.60; pIC50 (CDK6/CCND1; [4]): < 6.60
CCC1(CC)C(=O)Nc2cc(C#Cc3nccc4cnc(Nc5ccc(S(=N)(=O)C(C)C)cc5OC)cc34)ccc21 (single isomer, unassigned) [Ex 340, 3,3-diethyl-6-((7-((2-methoxy-4-(propan-2-ylsulfonimidoyl)phenyl)amino)-2,6-naphthyridin-1-yl)ethynyl)indolin-2-one] | – | – | – | – | pIC50 (CDK2/CCNE1; [1]): > 7.60; pIC50 (CDK1/CCNB1; [2]): < 6.60; pIC50 (CDK4/CCND3; [3]): < 6.60; pIC50 (CDK6/CCND1; [4]): < 6.60
CS(=N)(=O)c1ccc(Nc2cc3c(C#Cc4ccc5c(c4)NC(=O)C54CC4)nccc3cn2)cc1 (single isomer, unassigned) [Ex 358, 6'-((7-((4-(S-methylsulfonimidoyl)phenyl)amino)-2,6-naphthyridin-1-yl)ethynyl)spiro[cyclopropane-1,3'-indolin]-2'-one] | > 7.60 | 6.60 to 7.60 | 6.60 to 7.60 | < 6.60 | –
N=S(=O)(c1ccc(Nc2cc3c(C#Cc4ccc5c(c4)NC(=O)C54CCC4)nccc3cn2)cc1)C1CCC1 (single isomer, unassigned) [Ex 363, 6'-((7-((4-(cyclobutanesulfonimidoyl)phenyl)amino)-2,6-naphthyridin-1-yl)ethynyl)spiro[cyclobutane-1,3'-indolin]-2'-one] | > 7.60 | 6.60 to 7.60 | 6.60 to 7.60 | – | pIC50 (CDK6/CCND1; [12]): 6.60 to 7.60
CS(=N)(=O)c1ccc(Nc2cc3c(C#Cc4ccc5c(c4)NC(=O)C54CCC4)nccc3cn2)cc1 (single isomer, unassigned) [Ex 368, 6'-((7-((4-(S-methylsulfonimidoyl)phenyl)amino)-2,6-naphthyridin-1-yl)ethynyl)spiro[cyclobutane-1,3'-indolin]-2'-one] | > 7.60 | 6.60 to 7.60 | 6.60 to 7.60 | < 6.60 | –
CC(C)S(=N)(=O)c1ccc(Nc2cc3c(C#Cc4ccc5c(c4)NC(=O)C54CCC4)nccc3cn2)cc1 (single isomer, unassigned) [Ex 383, 6'-((7-((4-(propan-2-ylsulfonimidoyl)phenyl)amino)-2,6-naphthyridin-1-yl)ethynyl)spiro[cyclobutane-1,3'-indolin]-2'-one] | > 7.60 | 6.60 to 7.60 | 6.60 to 7.60 | – | pIC50 (CDK6/CCND1; [12]): 6.60 to 7.60
CCC1(CC)C(=O)Nc2cc(C#Cc3nccc4cnc(Nc5ccc(S(=N)(=O)CC)cc5)cc34)ccc21 (single isomer, unassigned) [Ex 411, 3,3-diethyl-6-((7-((4-(ethylsulfonimidoyl)phenyl)amino)-2,6-naphthyridin-1-yl)ethynyl)indolin-2-one] | > 7.60 | 6.60 to 7.60 | – | < 6.60 | pIC50 (CDK4/CCND3; [11]): < 6.60
CCC1(CC)C(=O)Nc2cc(C#Cc3nccc4cnc(Nc5ccc(S(=N)(=O)C6CCC6)cc5)cc34)ccc21 (single isomer, unassigned) [Ex 412, 6-((7-((4-(cyclobutanesulfonimidoyl)phenyl)amino)-2,6-naphthyridin-1-yl)ethynyl)-3,3-diethylindolin-2-one] | > 7.60 | – | 6.60 to 7.60 | < 6.60 | pIC50 (CDK1/CCNB1; [10]): < 6.60

Now from value to molecule, other results behind:

pIC50 (CDK2/CCNE1; [6]) | pIC50 (CDK1/CCNB1; [7]) | pIC50 (CDK4/CCND3; [8]) | pIC50 (CDK6/CCND1; [9]) | SMILES | also measured
> 7.60 | 6.60 to 7.60 | 6.60 to 7.60 | < 6.60 | N=S(=O)(c1ccc(Nc2cc3c(C#Cc4ccc5c(c4)NC(=O)C54CCC4)nccc3cn2)cc1)C1CC1 (single isomer, unassigned) [Ex 344, 6'-((7-((4-(cyclopropanesulfonimidoyl)phenyl)amino)-2,6-naphthyridin-1-yl)ethynyl)spiro[cyclobutane-1,3'-indolin]-2'-one] | –
> 7.60 | – | – | < 6.60 | COc1cc(S(=N)(=O)C(C)C)ccc1Nc1cc2c(C#Cc3ccc4c(c3)NC(=O)C43CCC3)nccc2cn1 (single isomer, unassigned) [Ex 345, 6'-((7-((2-methoxy-4-(propan-2-ylsulfonimidoyl)phenyl)amino)-2,6-naphthyridin-1-yl)ethynyl)spiro[cyclobutane-1,3'-indolin]-2'-one] | pIC50 (CDK1/CCNB1; [10]): < 6.60; pIC50 (CDK4/CCND3; [11]): < 6.60
> 7.60 | 6.60 to 7.60 | 6.60 to 7.60 | < 6.60 | CC(C)S(=N)(=O)c1ccc(Nc2cc3c(C#Cc4cc5c(cc4N)C(C)(C)C(=O)N5)nccc3cn2)cc1 (single isomer, unassigned) [Ex 349, 5-amino-3,3-dimethyl-6-((7-((4-(propan-2-ylsulfonimidoyl)phenyl)amino)-2,6-naphthyridin-1-yl)ethynyl)indolin-2-one] | –
> 7.60 | 6.60 to 7.60 | – | – | N=S(=O)(c1ccc(Nc2cc3c(C#Cc4ccc5c(c4)NC(=O)C54CC4)nccc3cn2)cc1)C1CCC1 (single isomer, unassigned) [Ex 350, 6'-((7-((4-(cyclobutanesulfonimidoyl)phenyl)amino)-2,6-naphthyridin-1-yl)ethynyl)spiro[cyclopropane-1,3'-indolin]-2'-one] | pIC50 (CDK4/CCND3; x = IC50 <25 nM, read-out: CDK4/CCND IC50 (<25 nM)): > 7.60; pIC50 (CDK6/CCND1; [12]): 6.60 to 7.60
> 7.60 | 6.60 to 7.60 | 6.60 to 7.60 | – | CC(C)S(=N)(=O)c1ccc(Nc2cc3c(C#Cc4ccc5c(c4)NC(=O)C54CC4)nccc3cn2)cc1 (single isomer, unassigned) [Ex 354, 6'-((7-((4-(propan-2-ylsulfonimidoyl)phenyl)amino)-2,6-naphthyridin-1-yl)ethynyl)spiro[cyclopropane-1,3'-indolin]-2'-one] | pIC50 (CDK6/CCND1; [12]): 6.60 to 7.60
> 7.60 | 6.60 to 7.60 | 6.60 to 7.60 | – | CCS(=N)(=O)c1ccc(Nc2cc3c(C#Cc4ccc5c(c4)NC(=O)C54CCC4)nccc3cn2)cc1 (single isomer, unassigned) [Ex 366, 6'-((7-((4-(ethylsulfonimidoyl)phenyl)amino)-2,6-naphthyridin-1-yl)ethynyl)spiro[cyclobutane-1,3'-indolin]-2'-one] | pIC50 (CDK6/CCND1; [12]): 6.60 to 7.60
– | – | – | < 6.60 | CC(C)S(=N)(=O)c1ccc(Nc2cc3c(C#Cc4cccnc4N)nccc3cn2)cc1 (single isomer, unassigned) [Ex 402, (4-((5-((2-aminopyridin-3-yl)ethynyl)-2,6-naphthyridin-3-yl)amino)phenyl)(imino)(isopropyl)-l6-sulfanone] | pIC50 (CDK2/CCNE1; x = IC50 25-250 nM, read-out: CDK2/CCNE IC50 (25-250 nM)): 6.60 to 7.60; pIC50 (CDK1/CCNB1; [10]): < 6.60; pIC50 (CDK4/CCND3; [11]): < 6.60
> 7.60 | 6.60 to 7.60 | 6.60 to 7.60 | < 6.60 | CCC1(CC)C(=O)Nc2cc(C#Cc3nccc4cnc(Nc5ccc(S(=N)(=O)C6CC6)cc5)cc34)ccc21 (single isomer, unassigned) [Ex 410, 6-((7-((4-(cyclopropanesulfonimidoyl)phenyl)amino)-2,6-naphthyridin-1-yl)ethynyl)-3,3-diethylindolin-2-one] | –
